Results as given in a melting point compilation (Tetko et al.; mined from patent text by program, amines drawn as free bases though some values may be those of a salt).
Residues, ends and D or L forms follow the SMILES beside them. *: point of attachment. Boc = CC(C)(C)OC(=O)*

melting point | SMILES
63.5 to 64.2 °C | N#Cc1ccc(F)c(-c2ccc(OC(F)(F)F)cc2)c1
113 to 115 °C | COc1cc2c(cc1NN)oc1ccccc12
144 to 148 °C | O=C1c2ccccc2OC2=CCON12
109 to 110 °C | CC(C)c1ccc2cc(O)ccc2c1
110 to 113 °C | CC1=C(C(=O)OCCOc2ccccc2)C(c2ccccc2C(F)(F)F)c2c(ccnc2OC(C)C)N1 (stereo unspecified)
180 to 181 °C | CC(=O)NC1Cc2cccc3cccc(c23)C1
96 to 97 °C | O=C(c1ccccc1)c1cc[nH]c1
118 to 119 °C | Cc1nc(-c2ccccc2)n(-c2ccc(S(C)(=O)=O)cc2)n1
218 to 219 °C | CC(C)(C)c1cc(-c2ccc(NC(=O)CCCC(=O)O)cc2)cc(C(C)(C)C)c1O
153 to 156 °C | NC(=O)N(O)CCNC(=O)c1cccc(Oc2ccc(Cl)c(Cl)c2)c1
192 to 195 °C | CN(c1ccc(C2CCCCC2)cc1)c1nc(=O)c2cccnc2s1
169 to 171 °C | FC(F)(F)c1cccc(Nc2nccc(-c3ccnc(Cl)c3)n2)c1
150 to 151 °C | O=C(O)c1cc2cc(Cl)ccc2nc1NC(COCc1ccccc1)C(=O)Nc1ccccc1 (stereo unspecified)
117 to 119 °C | Oc1ccc(-c2cccc3sc4ccccc4c23)cc1
223 to 226 °C | O=c1c2cccc3c2n(c(=O)n1CC(O)CO)-c1cc(C(F)(F)F)ccc1S3(=O)=O (stereo unspecified)
121 to 122 °C | O=Cc1ccc(CCc2ccc(C=O)cc2)cc1
> 240 °C | COc1ccc(C(=O)Nc2ccccc2)cc1NCc1ccc(C(=O)O)cc1
92 to 94 °C | CC(C(SC(=S)N(C)C)c1ccccc1)[N+](=O)[O-] (stereo unspecified)
203 to 206 °C | O=C(O)CC(=O)Nc1ccc(Br)cc1C(=O)O
147 to 148 °C | COc1ccc(Cn2c(C(=O)O)c(-c3ccc4c(c3)OCO4)c3cc(OCc4ccccc4)ccc32)c(OCC(=O)O)c1

melting point | SMILES
81 to 83 °C | O=C(Cc1ccccc1SCc1ccccc1)Nc1ccccc1
131 to 132 °C | Cc1c(O)ccc(C(=O)c2ccccc2F)c1C
95 to 103 °C | CCc1nc2c(C#N)cccc2n1-c1ccc(CCNC(=O)NS(=O)(=O)c2ccc(C)cc2)cc1
102 to 103 °C | CCC(O)(c1ccc(O)cc1)c1cccc(C(F)(F)F)c1 (stereo unspecified)
184 to 185 °C | Cc1nc(-c2ccc(Cl)cc2)n(-c2ccc(S(C)(=O)=O)cc2)n1
170 to 172 °C | CCCc1cc(N2CCC(NCC(O)c3ccnc4ccccc34)CC2)nc2sc(C(N)=O)c(N)c12 (stereo unspecified)
98 to 102 °C | COC(=O)CC(=O)NC(N)Cc1ccccc1 (stereo unspecified)
186 to 187 °C | Cc1c(Cc2ccc(C(C)C)cc2)c2c(c(C)c1NC(=O)CC(C)(C)C)CC(C)(CO)O2 (stereo unspecified)
142 to 143 °C | Cc1oc(-c2ccccc2)nc1COc1ccc(Cc2nc(-c3ccccc3)c(CCC(=O)O)o2)cc1
119 to 121 °C | CC(=O)c1ccc(S(=O)(=O)NCCO)cc1
136 to 137 °C | Cc1ccc(CC(N)=O)c(C)c1OC(F)F
135 °C | O=C(NC(Cc1ccccc1)C(=O)O)OCc1ccc(CCCc2ccccc2)cc1 (stereo unspecified)
149 °C | O=Cc1cccc2ncc(-c3ccccc3)nc12
113 to 114 °C | COC(=O)C(=O)c1ccc(C#CCNC(=O)c2ccc3ccccc3c2)cc1
157 to 158 °C | CCCC(=O)Nc1c(C(=O)c2cccc(Cl)c2)[nH]c2cc(Cl)ccc12
154 to 156 °C | CCOCc1cc(N)ccc1N1C(=O)c2ccc(Cl)cc2C1=O
233 to 235 °C | O=c1cc2c(nn1-c1ccc(Cl)cc1)-c1cc(F)ccc1S(=O)CC2 (stereo unspecified)
105 to 107 °C | COC(=O)c1cccc(C=Cc2cccc(C(=O)OC)c2)c1
185 to 187 °C | N#CC(C(=O)O)=C1Nc2ccccc2O1
90 to 92 °C | Cc1ccc(Oc2cccc(CC(=O)O)c2N)cc1C

melting point | SMILES
198 °C | COC(=O)C1=C(C)NN=C(c2ccccc2)C1c1ccccc1Cl (stereo unspecified)
146 to 148 °C | COc1cc(COc2nn(-c3ccccc3)cc2/C=C/c2nc(N3CCCCC3)sc2C)ccc1OCc1nc(-c2ccc(CC(=O)O)cc2)oc1C
150 to 154 °C | CC(C)(Cc1c[nH]c2ccccc12)NCC(O)COc1ccccc1Cl (stereo unspecified)
108 to 109 °C | OCc1cc2cc(-c3ccc(OC(F)(F)F)cc3)ccc2n1Cc1ccccc1
189 to 190 °C | Cc1cc(-c2nc3cccnn3c2-c2ccnc(NC(=O)NCCO)c2)ccc1F
194 to 196 °C | Fc1cccc(F)c1-c1cccnc1
57 to 60 °C | CC(C)CC(=O)N1CCC(NC(=O)c2ccccc2Oc2ccc(Cl)cc2Cl)CC1
83 to 84 °C | CC1CN(c2ccccc2)N=C1N (stereo unspecified)
220 to 224 °C | COC(=O)Nc1nc2ccc(Oc3ccncc3)cc2[nH]1
170 to 172 °C | COC1c2ccccc2C2C(=O)N(Cc3ccccc3)C(=O)C12 (stereo unspecified)
155 to 157 °C | OC1CCCc2cnc3cc(OCc4ccccc4)ccc3c21 (stereo unspecified)
> 280 °C | CS(=O)(=O)c1c(C(=O)NN=Cc2nccs2)[nH]c2ccccc12
252 to 281 °C | CSCCC(NC(=O)C(CC(C)C)NC(=O)CNC(=O)C(NC(=O)C(Cc1ccccc1)NC(=O)C(C)NC(=O)OC(C)(C)C)C(C)C)C(=O)O (stereo unspecified) (Boc-AFVGLM-OH; configuration not given here)
249 to 251 °C | O=C1NCCN1c1ccc(S(=O)(=O)Nc2ccc(F)cc2)cc1
56 to 57 °C | FC(F)Sc1ccc(-c2ccccc2)cc1
170 °C | CC(C)(C)OC(=O)CSc1cccc(-c2nc(=O)c3ccccc3s2)n1
134 to 136 °C | COc1ccc(CNc2cc(Cl)ncc2C(=O)NCc2ncccn2)cc1Cl
130 to 132 °C | Cc1cccc(CNC(=O)c2ccc3n2Cc2ccccc2N(C(=O)c2ccc(-c4ccccc4C)c(C)c2)C3)c1
86 to 92 °C | CCCN(CCCNc1ncc(Cc2ccc3c(c2)OCO3)c(=O)[nH]1)c1ccccn1
151 °C | NS(=O)(=O)c1ccc(-n2nc(C(F)(F)F)cc2-c2ccc(-c3ccco3)cc2)cc1F

The remaining lines, values behind:

SMILES | melting point
CC(C)(C)c1cc(C(=O)c2nccs2)cc2c1OCC2(C)C | 101 to 103 °C
CCOC(=O)C1=C(C)NC(C)=C(C(=O)OCC)C1c1ccc(F)cc1 | 150 to 151 °C
Cc1cccc(N2CCN(c3ccc(Br)nn3)CC2)c1 | 146 °C
CCOC(=O)C1=C(C)NC(C=O)=C(C(=O)OCC)C1c1ccco1 (stereo unspecified) | 78 to 79.5 °C
COc1ccc2c(c1OC)CCCC2=O | 103 to 104 °C
COC(=O)c1ccc(Cl)c(CSC)c1SC | 47.1 °C
CCCCCCCCCCCCCCCCCCOc1cc(OCCCOc2cccc(N)c2)cc(C(=O)N(CC(=O)O)CC(=O)O)c1 | 100 to 104 °C
Oc1ccc(C2(c3ccc(O)cc3)CCCCC2)cc1 | 181 to 182 °C
CCOC(=O)c1ccc(OCCCCCCCCc2cc(C)no2)cc1 | 49 °C
COc1cc(OC)c2c(=O)[nH]c(-c3cc(C)c(OCCO)c(C)c3)cc2c1 | 193 to 195 °C
CCN(C(=O)c1cnc(N2CC(C)(C)NC2=O)nc1N)c1cccc(C(F)(F)F)c1 | 186 to 187 °C
N#Cc1c(F)cccc1S(=O)(=O)N(Cl)Cl | 149 to 152 °C
CCCCCCCCCCCCCCCCn1c2cc(Br)ccc2c2ccc(Br)cc21 | 85 to 86 °C
CCOC(=O)/C=C(C)/C=C/C=C(\C)C1=Cc2cc(C(C)(C)C)cc(C)c2OC1 | 73 °C
Nc1cc(-c2ccc([N+](=O)[O-])c(N)c2)ccc1[N+](=O)[O-] | 226 °C
COc1ccnc(CCc2nc3cccnc3[nH]2)c1 | 116 to 117 °C
CCCCCCCCCCCCCCCCSCC(CNS(=O)(=O)CCCCl)NC(=O)OC(C)(C)C (stereo unspecified) | 100 to 102 °C
COc1ccc2c(c1)C(C(=O)O)CCC2 (stereo unspecified) | 126 to 127 °C
NC(=O)OC1CCN(C(=O)Cn2c(=O)sc3ccc(Cl)cc32)CC1 | 210 to 212 °C
CC(C)(C)c1ccc(O)cc1Cl | 65 to 67 °C
C#CCN1C(=O)COc2cc(F)c(-n3nc4ccc(Cl)cn4c3=O)cc21 | 196 to 198 °C

SMILES | melting point
C=CC(=O)Nc1ccc(-c2ccc(C(=O)N3CCN4CCC3CC4)o2)cc1 | 230 to 246 °C
COC(=O)c1nc(NC(C)=O)ccc1Oc1nc(OC)cc(OC)n1 | 80 to 85 °C
CC1(C)CCC(C)(C)c2c(OS(=O)(=O)C(F)(F)F)cc(-c3ccccc3)cc21 | 110 °C
COC(=O)C=CC(=O)c1cc(Cl)ccc1N | 111 to 112 °C
CC(C)Cn1c(=O)n(C)c(=O)c2nc(-c3ccc(/C=C/C(=O)O)cc3)[nH]c21 | > 300 °C
CN(C)S(=O)(=O)N(C)c1cccc2cc(-c3nccs3)[nH]c12 | 123 °C
CC(=CCP(=O)(O)O)C(N)C(=O)O (stereo unspecified) | 168 °C
COc1ccc(C2(C#Cc3ccc(C#N)s3)CCC(=O)CC2)cc1OC1CCCC1 | 106 to 107 °C
O=C(CF)NCc1ccc2ccn(C3CCN(CCc4ccc(F)cc4)CC3)c2c1 | 106 to 108 °C
CCCC(COc1noc2ccc(Cl)cc12)NC=O (stereo unspecified) | 107 to 108 °C
Cc1ccc(C)c(-c2sc(NC(=O)[C@@H]3CC4CCC3CC4)c(C#N)c2Cl)c1 | 208 to 210 °C
CCOC(=O)c1ccc2nccn2c1 | 93 to 94 °C
CCNC(=S)n1nc(Oc2c(F)cc(C(F)(F)F)cc2Cl)cc1C | 114 to 115 °C
COc1cc(C2C3=C(COC3=O)N(Cc3ccc([N+](=O)[O-])cc3)c3cc4c(cc32)OCO4)cc(OC)c1OC (stereo unspecified) | 240 °C
N#Cc1ccc(N2CCN(CC(=O)O)CC2=O)cc1 | 120 °C
O=C(O)c1cc2c(cc1C(=O)O)COCC2 | 179 to 181 °C
COc1cc2c(c3c1OC(C)(C)C3)C(c1cccc(N(CC(N)=O)S(C)(=O)=O)c1)=NC(C)(C)C2 | 190 to 191 °C
CNC(=C(Br)C#N)c1ccc(Cl)cc1 | 178 °C
CN(C)CCCN(C=O)C1CCC2C3CCc4ccccc4C3CCC21C (stereo unspecified) | 123 to 125 °C
COc1cc(OC)nc(Oc2cccc(Oc3nc(OC)cc(OC)n3)c2CBr)n1 | 127 °C
